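Test compounds were applied to cells in 96-well plates for 48 hours at 5 doses. GI50 = concentration required for 50% inhibition of growth.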 The source made the active and inactive calls. Rule as the data show it: active = GI50 up to about 1.1 µM and inactive = higher.
How the values were obtained:
Experiment in all cases: inhibition of tumour cell growth, NCI panel, 48 h
[1] = tested on: MOLT-4
[2] = tested on: HT-29
[3] = tested on: SK-MEL-5
[4] = tested on: IGROV-1
[5] = tested on: A549
[6] = tested on: Malme-3M
[7] = tested on: CCRF-CEM
[8] = tested on: NCI-H460
[9] = tested on: SW-620
[10] = tested on: UO-31
[11] = tested on: Hs-578T
[12] = tested on: U-251
[13] = tested on: TK-10
[14] = tested on: SR
[15] = tested on: SF-295
[16] = tested on: NCI-H226
[17] = tested on: HCC 2998
[18] = tested on: A498
[19] = tested on: NCI-H23

SMILES: COc1cccc2c1C(=O)c1c(O)c3c(c(O)c1C2=O)CC(O)(C(C)=O)CC3OC1OC(COC(C)=O)C(OC(C)=O)C(OC(C)=O)C1OC(C)=O (stereo not drawn)
- GI50 [1]: 12.8 µM (inactive)
- GI50 [2]: 25.7 µM (inactive)
- GI50 [3]: 23.9 µM (inactive)
- GI50 [4]: 16.3 µM (inactive)
- GI50 [5]: > 100 µM (inactive)
- GI50 [6]: 35.6 µM (inactive)
- GI50 [7]: 0.0276 µM (active)
- GI50 [8]: > 100 µM (inactive)
- GI50 [9]: > 100 µM (inactive)
- GI50 [10]: > 100 µM (inactive)
- GI50 [11]: 14.5 µM (inactive)
- GI50 [12]: 12.9 µM (inactive)
- GI50 [13]: 22.9 µM (inactive)
- GI50 [14]: 5.38 µM (inactive)
- GI50 [15]: 17.2 µM (inactive)

SMILES: Cc1nn2c(C(=O)N/N=C/c3ccc([N+](=O)[O-])cc3)c(C)nc2s1
- GI50 [1]: 41 µM (inactive)
- GI50 [2]: > 100 µM (inactive)
- GI50 [3]: > 100 µM (inactive)
- GI50 [16]: > 100 µM (inactive)
- GI50 [4]: > 100 µM (inactive)
- GI50 [5]: > 100 µM (inactive)
- GI50 [6]: > 100 µM (inactive)
- GI50 [7]: > 100 µM (inactive)
- GI50 [8]: > 100 µM (inactive)
- GI50 [9]: > 100 µM (inactive)
- GI50 [10]: 34.4 µM (inactive)
- GI50 [11]: > 100 µM (inactive)
- GI50 [17]: > 100 µM (inactive)
- GI50 [12]: 23.6 µM (inactive)
- GI50 [13]: 36.7 µM (inactive)
- GI50 [15]: > 100 µM (inactive)
- GI50 [18]: > 100 µM (inactive)
- GI50 [19]: > 100 µM (inactive)

SMILES: CCCCCCCCCOC(=O)c1cnc(Cl)cn1
- GI50 [1]: 52.7 µM (inactive)
- GI50 [2]: 29 µM (inactive)
- GI50 [3]: 17.6 µM (inactive)
- GI50 [16]: 18.2 µM (inactive)
- GI50 [4]: 20.2 µM (inactive)
- GI50 [5]: 26.4 µM (inactive)
- GI50 [6]: 19.6 µM (inactive)
- GI50 [7]: 39.9 µM (inactive)
- GI50 [8]: 20.8 µM (inactive)
- GI50 [9]: 17.3 µM (inactive)
- GI50 [10]: 18.5 µM (inactive)
- GI50 [11]: 22.8 µM (inactive)
- GI50 [12]: 19.7 µM (inactive)
- GI50 [13]: 20.5 µM (inactive)
- GI50 [14]: 49.1 µM (inactive)
- GI50 [15]: 17.6 µM (inactive)
- GI50 [19]: 18.2 µM (inactive)

SMILES: C=C(C)[C@@H]1CCC2=C[C@H](OC2=O)[C@@]2(C)C[C@@H]2C(=O)/C=C(/C)C(=O)[C@H]1OC(C)=O
- GI50 [1]: 5.66 µM (inactive)
- GI50 [2]: 11.1 µM (inactive)
- GI50 [3]: 16.2 µM (inactive)
- GI50 [16]: 23.9 µM (inactive)
- GI50 [4]: 14.1 µM (inactive)
- GI50 [5]: 29.2 µM (inactive)
- GI50 [6]: 12.1 µM (inactive)
- GI50 [7]: 5.02 µM (inactive)
- GI50 [8]: 30.1 µM (inactive)
- GI50 [9]: 14 µM (inactive)
- GI50 [10]: 10.9 µM (inactive)
- GI50 [11]: 16.9 µM (inactive)
- GI50 [17]: 21.7 µM (inactive)
- GI50 [12]: 28.6 µM (inactive)
- GI50 [13]: 24.5 µM (inactive)
- GI50 [15]: 42.6 µM (inactive)
- GI50 [18]: 23.2 µM (inactive)
- GI50 [19]: 11.6 µM (inactive)

SMILES: Nn1c(Cc2ccc([N+](=O)[O-])cc2)n[nH]c1=O
- GI50 [1]: > 100 µM (inactive)
- GI50 [2]: > 100 µM (inactive)
- GI50 [3]: > 100 µM (inactive)
- GI50 [16]: > 100 µM (inactive)
- GI50 [4]: > 100 µM (inactive)
- GI50 [5]: > 100 µM (inactive)
- GI50 [6]: > 100 µM (inactive)
- GI50 [7]: > 100 µM (inactive)
- GI50 [8]: > 100 µM (inactive)
- GI50 [9]: > 100 µM (inactive)
- GI50 [10]: > 100 µM (inactive)
- GI50 [11]: > 100 µM (inactive)
- GI50 [17]: > 100 µM (inactive)
- GI50 [12]: > 100 µM (inactive)
- GI50 [14]: > 100 µM (inactive)
- GI50 [15]: > 100 µM (inactive)
- GI50 [19]: > 100 µM (inactive)

SMILES: CNC(=S)N(C1CCCCC1)C1CCCCC1
- GI50 [1]: 37.3 µM (inactive)
- GI50 [2]: 41.1 µM (inactive)
- GI50 [3]: 49 µM (inactive)
- GI50 [16]: > 100 µM (inactive)
- GI50 [4]: > 100 µM (inactive)
- GI50 [5]: 56.9 µM (inactive)
- GI50 [6]: 47 µM (inactive)
- GI50 [7]: 33.1 µM (inactive)
- GI50 [8]: 50.9 µM (inactive)
- GI50 [9]: > 100 µM (inactive)
- GI50 [10]: 85.5 µM (inactive)
- GI50 [11]: 26.3 µM (inactive)
- GI50 [17]: > 100 µM (inactive)
- GI50 [12]: > 100 µM (inactive)
- GI50 [13]: > 100 µM (inactive)
- GI50 [14]: 42.4 µM (inactive)
- GI50 [15]: 61.2 µM (inactive)
- GI50 [19]: 82.8 µM (inactive)

SMILES: Cc1cc(-c2nc3cccc(O)c3s2)ccc1N
- GI50 [1]: 28.2 µM (inactive)
- GI50 [2]: 36.3 µM (inactive)
- GI50 [3]: 19.3 µM (inactive)
- GI50 [16]: 45.1 µM (inactive)
- GI50 [4]: 22.2 µM (inactive)
- GI50 [5]: 15.7 µM (inactive)
- GI50 [7]: 25.8 µM (inactive)
- GI50 [8]: 29.1 µM (inactive)
- GI50 [9]: 46.9 µM (inactive)
- GI50 [10]: 4.43 µM (inactive)
- GI50 [11]: 5.75 µM (inactive)
- GI50 [17]: 45.3 µM (inactive)
- GI50 [12]: 41.1 µM (inactive)
- GI50 [13]: 33.6 µM (inactive)
- GI50 [14]: 40.8 µM (inactive)
- GI50 [15]: 28.8 µM (inactive)
- GI50 [19]: 24.6 µM (inactive)

SMILES: CCOC(=O)C(=O)C(=O)NN(C)C1=NCCN1
- GI50 [1]: > 100 µM (inactive)
- GI50 [2]: > 100 µM (inactive)
- GI50 [3]: > 100 µM (inactive)
- GI50 [16]: > 100 µM (inactive)
- GI50 [4]: > 100 µM (inactive)
- GI50 [5]: > 100 µM (inactive)
- GI50 [6]: > 100 µM (inactive)
- GI50 [7]: > 100 µM (inactive)
- GI50 [8]: > 100 µM (inactive)
- GI50 [9]: > 100 µM (inactive)
- GI50 [10]: > 100 µM (inactive)
- GI50 [11]: > 100 µM (inactive)
- GI50 [17]: > 100 µM (inactive)
- GI50 [12]: > 100 µM (inactive)
- GI50 [13]: > 100 µM (inactive)
- GI50 [14]: > 100 µM (inactive)
- GI50 [15]: > 100 µM (inactive)
- GI50 [19]: > 100 µM (inactive)

Reference: ChEMBL document CHEMBL1201862, “PubChem BioAssay data set” (2004)
